{"source": "patent US5491135A", "about": "(priority 1993, dated 1996)", "key": {"Sandfly fever virus": {"system": "Sandfly fever virus", "experiment": "microbe, parasite or virus in culture", "conditions": "sandfly fever Sicilian virus, Vero"}, "Punta toro virus [1]": {"system": "Punta toro virus", "conditions": "Vero"}, "Varicella": {"system": "Varicella", "experiment": "In vitro antiviral assay", "type": "cell-based", "conditions": "Vero"}, "Herpes-1": {"system": "Herpes-1", "experiment": "In vitro antiviral assay", "type": "cell-based", "conditions": "Vero"}, "Coxsackie B3": {"system": "Coxsackie B3", "experiment": "In vitro antiviral assay", "type": "cell-based"}, "Yellow fever virus": {"system": "Yellow fever virus", "experiment": "microbe, parasite or virus in culture", "conditions": "Vero"}, "[2]": {"system": "Japanese encephalitis virus", "conditions": "Vero; 50% inhibition"}, "Punta toro virus [3]": {"system": "Punta toro virus", "experiment": "microbe, parasite or virus in culture", "conditions": "Vero"}}, "note": "“And” between values parts separate entries of the source, which are not always exact repeats. Equal values may be shown once. Read-outs that look alike come from different tables or passages of the source."}
{"smiles": "O=C(O)C[C@H](NC(=O)CP(=O)(O)O)C(=O)O", "note": "[PALA]", "values": [{"measurement": "IC50", "setting": "Sandfly fever virus", "result": 20.9, "unit": "µg/mL"}, {"measurement": "IC50", "setting": "Punta toro virus [1]", "result": 18.4, "unit": "µg/mL"}, {"measurement": "TI (TC50/IC50)", "setting": "Punta toro virus [1]; 50% inhibition", "result": "> 21.05 and > 17.35"}, {"measurement": "TI(95)", "setting": "Punta toro virus [1]; 95% inhibition", "result": "> 10.00"}, {"measurement": "IC50", "setting": "Varicella", "result": 10, "unit": "µg/mL"}, {"measurement": "TI", "setting": "Varicella", "result": 32.0}, {"measurement": "IC50", "setting": "Herpes-1", "result": "no inhibitory activity and None"}, {"measurement": "IC50", "setting": "Coxsackie B3; Enterovirus B, B3, Vero", "result": "~33", "unit": "µg/mL"}, {"measurement": "TI", "setting": "Coxsackie B3; Vero", "result": 9.7}, {"measurement": "IC50", "setting": "Yellow fever virus", "result": 16.6, "unit": "µg/mL"}, {"measurement": "TI (TC50/IC50)", "setting": "[2]", "result": "> 18.59 and > 18.80"}, {"measurement": "IC50", "setting": "Punta toro virus [3]", "result": 15.2, "unit": "µg/mL"}]}
